For data set [1] the following is noted: PAMPA, cited from earlier work; for LogPapp: ratio-based method, series 2 macrocycles, previously reported, ref Thorpe et al., Chem. Sci. 2024, 15, 14977. On the technique in general: The PAMPA barrier holds no transporters, so it reflects passive diffusion.
The subject of data set [2] is PAMPA. As to conditions: initial concentration 500 uM, UV detection.
Data set [3] deals with PAMPA. To be noted: initial concentration 500 uM.
The test system of data set [4] is PAMPA. As to conditions: calculated using Supplement Equation 1, UV detection.
A short description of data set [5]: in vitro. To be noted: PAMPA, Papp.
The conditions of data set [6]: PAMPA, 500 uM.
For data set [7], the system named is PAMPA. As to conditions: UV detection.
Data set [8] concerns PAMPA. To be noted: Well 3 / [acc]; Well 3; initial concentration 500 uM; UV detection.
Data set [9] relates to PAMPA.
The nature of data set [10]: PAMPA, permeability assay across an artificial membrane. To be noted: increase: difference between percent diffusion of macrocycle vs linear counterpart.
In data set [11] the test system is Caco‐2. The experiment in a line: Experimental Caco‐2 permeability. In kind it is in vitro ADME. To be noted: Caco‐2 experiments, series 2. As to the method: Johnston et al. Supporting information
5.1 Comparison of Experimental Caco‐2 Papp to Calculated LogP
Experimental Caco‐2 vs. Calculated Permeabilities fo r Series 2
*C2.3 was not detected in Caco‐2 experiments
VI. LC/MS and ELSD Traces
In all cases, the large peak near the beginning of the run (R.T. 2‐6 minutes), is the DMSO solvent front.
(also on this page, place not known: 00 . 511 . 522 . 533 . 5 Caco2 Papp (x 10‐6 cm/s) Experimental for)

Molecules are shown by their SMILES. Where “and” joins values, the source holds several entries; their conditions need not be identical. Equal entries are not always repeated. Where two headings read alike, the source gives them in different places. Starred links: 1 amine or outer side, 2 acyl side, 3 side chain; linkers in the order of their positions; H or OH if unused. Non-standard residues stand in square brackets, D forms with d. Residues, ends and D or L forms follow the SMILES beside them. X1 = CCCCC[C@H](O[*:1])C(=O)[*:2]; Ahp(2) = CCCCC[C@H](N)C(=O)O; dNMeA = CN[C@H](C)C(=O)O

This is an account of results in paper PMC11995216, “End-to-End Backbone Cyclization Enhances Passive Permeability of bRo5 Oligomeric Depsipeptides with Nonlinear Size Dependence” (ACS Medicinal Chemistry Letters, 2025).

A word on the Papp: it is a coefficient for how fast a substance crosses the barrier.

`CC(C)NC[C@H](O)COc1cccc2ccccc12` [(S)‐Propranolol, reference compound]: the “Literature Papp” value in data set [1] (ref Schmidt, D., Lynch, J. 2003, Millipore) is 10.0 x 10‐6.
As to `CCCCC[C@@H]1OC(=O)[C@@H](C)N(C)C1=O` [Compound C1.1], the donor concentration after incubation in [2] (Well 1 / [donor], Well 1) is 259 µM and 253 µM; in data set [2] (Well 2 / [donor], Well 2) it was 262 µM and 271 µM; in data set [2] (Well 3 / [donor], Well 3), 267 µM and 276 µM; in data set [2] (Well 4 / [donor], Well 4), 264 µM and 266 µM; in data set [2] (Well 5 / [donor], Well 5) it was 250 µM and 261 µM. Besides, the Acceptor Concentration worked out at 225 µM in data set [3] (Acceptor Concentration (uM) – ELSD Detection / [row 1], ELSD Detection); 205 µM in [3] (Acceptor Concentration (uM) – ELSD Detection / [row 2], ELSD Detection); 212 µM in [3] (Acceptor Concentration (uM) – ELSD Detection / [row 3], ELSD Detection); 216 µM in [3] (Acceptor Concentration (uM) – ELSD Detection / [row 4], ELSD Detection); 207 µM in [3] (Acceptor Concentration (uM) – ELSD Detection / [row 5], ELSD Detection); 206 µM in data set [3] (Acceptor Concentration (uM) – ELSD Detection / [row 6], ELSD Detection). Further, the Acceptor Concentration stood at 216 µM in [3] (Acceptor Concentration (uM) – ELSD Detection / [row 7], ELSD Detection); 218 µM in [3] (Acceptor Concentration (uM) – ELSD Detection / [row 8], ELSD Detection); 208 µM in [3] (Acceptor Concentration (uM) – ELSD Detection / [row 9], ELSD Detection); 202 µM in [3] (Acceptor Concentration (uM) – ELSD Detection / [row 10], ELSD Detection); 208 µM in data set [3] (Acceptor Concentration (uM) – UV Detection / [row 1], UV Detection); 204 µM in data set [3] (Acceptor Concentration (uM) – UV Detection / [row 2], UV Detection). The Acceptor Concentration in data set [3] (Acceptor Concentration (uM) – UV Detection / [row 3], UV Detection) was found to be 193 µM; in data set [3] (Acceptor Concentration (uM) – UV Detection / [row 4], UV Detection) it was 231 µM; in [3] (Acceptor Concentration (uM) – UV Detection / [row 5], UV Detection), 245 µM; in data set [3] (Acceptor Concentration (uM) – UV Detection / [row 6], UV Detection) it was 193 µM; in data set [3] (Acceptor Concentration (uM) – UV Detection / [row 7], UV Detection), 178 µM; in data set [3] (Acceptor Concentration (uM) – UV Detection / [row 8], UV Detection) it was 199 µM. Also, the Acceptor Concentration stood at 208 µM in [3] (Acceptor Concentration (uM) – UV Detection / [row 9], UV Detection) and 209 µM in [3] (Acceptor Concentration (uM) – UV Detection / [row 10], UV Detection). The %T was 0.91% and 0.93% in data set [4] (Well 1 / %T, Well 1); 0.86% and 0.92% in data set [4] (Well 2 / %T, Well 2); 0.89% in data set [4] (Well 3 / %T, Well 3); 0.92% and 0.96% in [4] (Well 4 / %T, Well 4); 0.93% and 0.99% in data set [4] (Well 5 / %T, Well 5). For the same compound, the Papp at 500 uM came to 14.6 ± 2.38 ×10⁻⁶ cm/s in [5] and 14.1 ×10⁻⁶ cm/s in data set [5] (Ave). Also, the Δ % diffusion entry in data set [6] is listed as “↑22%”. For the same compound, the % recovery in data set [7] (Well 1 / %R, Well 1) is 93% and 89%; in data set [7] (Well 2 / %R, Well 2), 93% and 90%; in data set [7] (Well 3 / %R, Well 3) it was 92% and 95%; in data set [7] (Well 4 / %R, Well 4), 99% and 95%; in data set [7] (Well 5 / %R, Well 5), 99%. In addition, the acceptor concentration after incubation in data set [8] is 193 µM. Besides, the Papp in data set [9] (Papp (x 10^-6 cm/s) – ELSD Detection / [row 1], ELSD Detection) came to 14.3 ×10⁻⁶ cm/s; in data set [9] (Papp (x 10^-6 cm/s) – ELSD Detection / [row 2], ELSD Detection), 13.6 ×10⁻⁶ cm/s; in data set [9] (Papp (x 10^-6 cm/s) – ELSD Detection / [row 3], ELSD Detection) it was 13.9 ×10⁻⁶ cm/s; in data set [9] (Papp (x 10^-6 cm/s) – ELSD Detection / [row 4], ELSD Detection) it was 15.4 ×10⁻⁶ cm/s; in data set [9] (Papp (x 10^-6 cm/s) – ELSD Detection / [row 5], ELSD Detection), 15 ×10⁻⁶ cm/s; in [9] (Papp (x 10^-6 cm/s) – ELSD Detection / [row 6], ELSD Detection), 11.7 ×10⁻⁶ cm/s. The apparent permeability (Papp) in data set [9] (Papp (x 10^-6 cm/s) – ELSD Detection / [row 7], ELSD Detection) was determined as 14.1 ×10⁻⁶ cm/s; in data set [9] (Papp (x 10^-6 cm/s) – ELSD Detection / [row 8], ELSD Detection) it was 15 ×10⁻⁶ cm/s; in data set [9] (Papp (x 10^-6 cm/s) – ELSD Detection / [row 9], ELSD Detection), 14.8 ×10⁻⁶ cm/s; in [9] (Papp (x 10^-6 cm/s) – ELSD Detection / [row 10], ELSD Detection), 13.6 ×10⁻⁶ cm/s; in data set [9] (Papp (x 10^-6 cm/s) – UV Detection / [row 1], UV Detection), 15.1 ×10⁻⁶ cm/s; in data set [9] (Papp (x 10^-6 cm/s) – UV Detection / [row 2], UV Detection), 14.2 ×10⁻⁶ cm/s. In addition, the apparent permeability (Papp) in data set [9] (Papp (x 10^-6 cm/s) – UV Detection / [row 3], UV Detection) came out at 12.7 ×10⁻⁶ cm/s; in [9] (Papp (x 10^-6 cm/s) – UV Detection / [row 4], UV Detection), 18 ×10⁻⁶ cm/s; in [9] (Papp (x 10^-6 cm/s) – UV Detection / [row 5], UV Detection) it was 19 ×10⁻⁶ cm/s; in data set [9] (Papp (x 10^-6 cm/s) – UV Detection / [row 6], UV Detection), 13.8 ×10⁻⁶ cm/s; in [9] (Papp (x 10^-6 cm/s) – UV Detection / [row 7], UV Detection), 11.2 ×10⁻⁶ cm/s; in data set [9] (Papp (x 10^-6 cm/s) – UV Detection / [row 8], UV Detection), 12.7 ×10⁻⁶ cm/s. The Papp stood at 14.3 ×10⁻⁶ cm/s in data set [9] (Papp (x 10^-6 cm/s) – UV Detection / [row 9], UV Detection) and 15 ×10⁻⁶ cm/s in data set [9] (Papp (x 10^-6 cm/s) – UV Detection / [row 10], UV Detection).
Regarding `CCCCC[C@@H]1NC(=O)[C@@H](C)N(C)C(=O)[C@H](CCCCC)OC(=O)[C@@H](C)N(C)C(=O)[C@H](CCCCC)OC(=O)[C@@H](C)N(C)C(=O)[C@H](CCCCC)OC(=O)[C@@H](C)N(C)C1=O` [Compound C2.1] (cyclo([Ahp(2)][dNMeA][X1][dNMeA][X1][dNMeA][X1][dNMeA])), the Δ % diffusion result in data set [10] is listed as “↑19%”. For the same compound, the LogPapp in [1] is given as -4.91 ± 0.09.
With `CCCCC[C@@H]1NC(=O)[C@@H](C)N(C)C(=O)[C@H](CCCCC)OC(=O)[C@@H](C)N(C)C(=O)[C@H](CCCCC)OC(=O)[C@@H](C)N(C)C(=O)[C@H](CCCCC)NC(=O)[C@@H](C)N(C)C1=O` [Compound C2.2] (cyclo([Ahp(2)][dNMeA][Ahp(2)][dNMeA][X1][dNMeA][X1][dNMeA])), the Δ % diffusion result in data set [10] is recorded as “↑17%”. In addition, the LogPapp in data set [1] is listed as -5.05 ± 0.03.
For the compound `CCCCC[C@@H]1NC(=O)[C@@H](C)N(C)C(=O)[C@H](CCCCC)OC(=O)[C@@H](C)N(C)C(=O)[C@H](CCCCC)NC(=O)[C@@H](C)N(C)C(=O)[C@H](CCCCC)OC(=O)[C@@H](C)N(C)C1=O` [Compound C2.3] (cyclo([Ahp(2)][dNMeA][X1][dNMeA][Ahp(2)][dNMeA][X1][dNMeA])), the “Experimental Caco‐2 Papp” value in [11] is recorded as “not detected”. Further, the Δ % diffusion entry in data set [10] was “↑10%”. For the same compound, the LogPapp in data set [1] is -5.23 ± 0.04.
As to `CCCCC[C@@H]1NC(=O)[C@@H](C)N(C)C(=O)[C@H](CCCCC)NC(=O)[C@@H](C)N(C)C(=O)[C@H](CCCCC)OC(=O)[C@@H](C)N(C)C(=O)[C@H](CCCCC)NC(=O)[C@@H](C)N(C)C1=O` [Compound C2.4] (cyclo([Ahp(2)][dNMeA][Ahp(2)][dNMeA][Ahp(2)][dNMeA][X1][dNMeA])), the Δ % diffusion result in data set [10] was “↑7%”. Moreover, the LogPapp in [1] is on record as -5.33 ± 0.07.
On to `CCCCC[C@@H]1NC(=O)[C@@H](C)N(C)C(=O)[C@H](CCCCC)NC(=O)[C@@H](C)N(C)C(=O)[C@H](CCCCC)NC(=O)[C@@H](C)N(C)C(=O)[C@H](CCCCC)NC(=O)[C@@H](C)N(C)C1=O` [Compound C2.5] (cyclo([Ahp(2)][dNMeA][Ahp(2)][dNMeA][Ahp(2)][dNMeA][Ahp(2)][dNMeA])), for which the Δ % diffusion entry in data set [6] is recorded as “↑6%”. The LogPapp in data set [1] is on record as -5.31 ± 0.04.
